Assay results: ChEMBL document CHEMBL3351720, “Design, synthesis and evaluation of benzoisothiazolones as selective inhibitors of PHOSPHO1” (Bioorg Med Chem Lett, 2014)

Legend:
Phosphomannomutase 2 = biological target: T1, Phosphomannomutase 2 (Homo sapiens, UniProt O15305); test: Inhibition of PMM2 (unknown origin)
T1 sequence (O15305 whole entry): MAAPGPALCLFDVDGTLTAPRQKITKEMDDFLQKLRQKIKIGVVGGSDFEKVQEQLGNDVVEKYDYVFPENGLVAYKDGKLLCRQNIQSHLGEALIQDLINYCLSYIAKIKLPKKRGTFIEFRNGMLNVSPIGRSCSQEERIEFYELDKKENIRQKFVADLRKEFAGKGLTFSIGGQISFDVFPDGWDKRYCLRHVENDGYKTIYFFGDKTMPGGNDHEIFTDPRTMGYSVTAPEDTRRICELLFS

[1] = biological target: T2, Mannose-6-phosphate isomerase (Homo sapiens, UniProt P34949); test: Inhibition of phosphomannose isomerase (unknown origin)
T2 sequence (P34949 whole entry): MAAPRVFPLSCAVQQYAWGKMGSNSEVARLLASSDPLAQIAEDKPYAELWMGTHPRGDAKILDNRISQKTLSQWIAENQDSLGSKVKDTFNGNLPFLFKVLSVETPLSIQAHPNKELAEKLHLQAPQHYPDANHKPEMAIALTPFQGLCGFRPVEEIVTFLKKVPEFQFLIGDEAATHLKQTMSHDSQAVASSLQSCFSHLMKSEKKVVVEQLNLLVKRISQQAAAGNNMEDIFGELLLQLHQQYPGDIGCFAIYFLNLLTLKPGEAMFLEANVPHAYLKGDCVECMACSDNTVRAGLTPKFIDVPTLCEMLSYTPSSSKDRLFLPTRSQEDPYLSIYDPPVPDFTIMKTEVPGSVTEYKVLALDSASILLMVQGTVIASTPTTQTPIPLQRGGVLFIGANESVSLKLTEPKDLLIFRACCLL

[2] = biological target: T3, Phosphoethanolamine/phosphocholine phosphatase (Homo sapiens, UniProt Q8TCT1); test: Inhibition of PHOSPHO1 phosphoethanolamine activity (unknown origin) assessed as amount of inorganic phosphate release after 30 mins
T3 sequence (Q8TCT1 whole entry): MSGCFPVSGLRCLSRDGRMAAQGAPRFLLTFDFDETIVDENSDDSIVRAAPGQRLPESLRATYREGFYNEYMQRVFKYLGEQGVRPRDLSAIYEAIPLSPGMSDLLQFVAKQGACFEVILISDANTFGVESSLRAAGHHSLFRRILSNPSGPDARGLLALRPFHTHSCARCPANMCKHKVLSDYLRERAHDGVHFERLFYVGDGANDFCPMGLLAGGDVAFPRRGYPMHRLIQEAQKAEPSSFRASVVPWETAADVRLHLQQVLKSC

SMILES	IC50 (Phosphomannomutase 2)	IC50 [1]	IC50 [2]
Cc1cccc(-n2sc3ccccc3c2=O)c1	> 20 µM	–	–
Cc1cccc(-n2sc3cc(F)ccc3c2=O)c1C	> 20 µM	9.9 µM	4.7 µM
O=c1c2ccc(F)cc2sn1-c1ccccc1	> 50 µM	1.3 µM	0.79 µM
COc1ccc(-n2sc3cc(F)ccc3c2=O)cc1	> 10 µM	–	6.7 µM
O=c1c2ccccc2sn1-c1ccc(Cl)c(S(=O)(=O)N2CCOCC2)c1	63 µM	–	–
CCN(CC)S(=O)(=O)c1cccc(-n2sc3ccccc3c2=O)c1	> 100 µM	> 50 µM	–
CN(C)c1ccc(-n2sc3ccccc3c2=O)cc1	> 30 µM	8.4 µM	–
CCOC(=O)c1ccc(-n2sc3ccccc3c2=O)cc1	> 50 µM	23 µM	–
Cc1ccc(C)c(-n2sc3cc(F)ccc3c2=O)c1	–	–	3.3 µM
O=c1c2ccccc2sn1-c1ccc(F)c(Cl)c1	> 100 µM	> 50 µM	–
O=c1c2ccc(F)cc2sn1-c1ccc(F)cc1	> 50 µM	3.6 µM	> 10 µM
